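Following 48 hours of exposure in 96-well plates, responses at five concentrations were used to interpolate endpoints linearly. Here, GI50 denotes the concentration required for 50% inhibition of growth. The concentration for full growth arrest is given as TGI.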
Legend:
Experiment in all cases: NCI-60 cell line screen, 48 h
SK-MEL-28 melanoma = test system: SK-MEL-28 melanoma
SF-539 CNS = test system: SF-539 CNS
CCRF-CEM leukemia = test system: CCRF-CEM leukemia
HCC-2998 colon = test system: HCC-2998 colon
SK-MEL-5 melanoma = test system: SK-MEL-5 melanoma
NCI-H522 lung = test system: NCI-H522 lung
BT-549 breast = test system: BT-549 breast
A549 NSCLC = test system: A549 NSCLC
NCI/ADR-RES ovarian = test system: NCI/ADR-RES ovarian
UACC-62 melanoma = test system: UACC-62 melanoma
UO-31 renal = test system: UO-31 renal
SW-620 colon = test system: SW-620 colon
ACHN renal = test system: ACHN renal
MDA-MB-435 = test system: MDA-MB-435
OVCAR-4 ovarian = test system: OVCAR-4 ovarian
SF-295 CNS = test system: SF-295 CNS
NCI-H460 lung = test system: NCI-H460 lung
786-0 renal = test system: 786-0 renal
NCI-H23 lung = test system: NCI-H23 lung
T-47D breast = test system: T-47D breast
NCI-H226 lung = test system: NCI-H226 lung
HOP-62 NSCLC = test system: HOP-62 NSCLC
COLO 205 colon = test system: COLO 205 colon
MOLT-4 leukemia = test system: MOLT-4 leukemia
SK-OV-3 ovarian = test system: SK-OV-3 ovarian
PC-3 prostate = test system: PC-3 prostate
MCF7 breast = test system: MCF7 breast
K-562 leukemia = test system: K-562 leukemia

## C=C1C(=O)O[C@H]2[C@H]1CC/C(COC(=O)CSCCSCC(=O)OC/C1=C/CC[C@@]3(C)O[C@H]3[C@H]3OC(=O)C(=C)[C@@H]3CC1)=C\CC[C@@]1(C)O[C@@H]21
SK-MEL-28 melanoma
  GI50: 1920 nM
  TGI: 3810 nM
SF-539 CNS
  GI50: 1550 nM
  TGI: 3120 nM
CCRF-CEM leukemia
  GI50: 468 nM
  TGI: 3240 nM
HCC-2998 colon
  GI50: 1850 nM
  TGI: 3520 nM
SK-MEL-5 melanoma
  GI50: 1880 nM
  TGI: 3720 nM
NCI-H522 lung
  GI50: 1290 nM
  TGI: 2800 nM
BT-549 breast
  GI50: 1640 nM
  TGI: 3270 nM
A549 NSCLC
  GI50: 2720 nM
  TGI: 8210 nM
NCI/ADR-RES ovarian
  GI50: 3610 nM
  TGI: 16700 nM
UACC-62 melanoma
  GI50: 2310 nM
  TGI: 5160 nM
UO-31 renal
  GI50: 1410 nM
  TGI: 2750 nM
SW-620 colon
  GI50: 1480 nM
  TGI: 3450 nM
ACHN renal
  GI50: 1700 nM
  TGI: 3230 nM
MDA-MB-435
  GI50: 2180 nM
  TGI: 5220 nM
OVCAR-4 ovarian
  GI50: 2380 nM
  TGI: 6050 nM
SF-295 CNS
  GI50: 2290 nM
  TGI: 5760 nM
NCI-H460 lung
  GI50: 2280 nM
  TGI: 6430 nM
786-0 renal
  GI50: 1640 nM
  TGI: 3270 nM
NCI-H23 lung
  GI50: 2250 nM
  TGI: 5380 nM
T-47D breast
  GI50: 1630 nM
  TGI: 3500 nM
NCI-H226 lung
  GI50: 3510 nM
  TGI: 13600 nM
HOP-62 NSCLC
  GI50: 2450 nM
  TGI: 7380 nM
COLO 205 colon
  GI50: 1480 nM
  TGI: 2950 nM
MOLT-4 leukemia
  GI50: 1160 nM
  TGI: 3890 nM
SK-OV-3 ovarian
  GI50: 4480 nM
  TGI: 15300 nM
PC-3 prostate
  GI50: 2500 nM
  TGI: 8330 nM
MCF7 breast
  GI50: 832 nM
  TGI: 2660 nM
K-562 leukemia
  GI50: 1170 nM

From PubChem BioAssay (NCI)
